Measurements: PMC10247784, “Physiological activation of human and mouse bitter taste receptors by bile acids” (Communications Biology, 2023)
Several values for one entry are separate records, joined by “and”; a condition that tells them apart may be missing. Equal entries are not always repeated.

Target: T1, human TAS2R1 (Homo sapiens, UniProt Q9NYW7)
T1 construct: expressed in transfected cells; host or cells: HEK293T-Gα16gust44
T1 sequence (Q9NYW7 1-299): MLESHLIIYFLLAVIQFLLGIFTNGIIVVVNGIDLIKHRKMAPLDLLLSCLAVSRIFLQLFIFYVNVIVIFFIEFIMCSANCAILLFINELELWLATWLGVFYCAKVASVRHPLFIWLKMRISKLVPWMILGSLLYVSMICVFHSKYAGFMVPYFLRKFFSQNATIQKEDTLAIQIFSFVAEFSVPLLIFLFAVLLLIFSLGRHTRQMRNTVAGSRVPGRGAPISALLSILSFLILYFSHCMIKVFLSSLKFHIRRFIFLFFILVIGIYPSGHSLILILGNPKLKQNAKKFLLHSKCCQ
Test: Calcium imaging assay (FLIPR), HEK293T-Gα16gust44 cells transfected with human TAS2R1
Type: cell-based
Procedure, shortened: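 Bile acids from DMSO stocks are applied to dye-loaded cells one day after transient receptor transfection, and calcium-dependent fluorescence is recorded. Maximum signal is standardized to basal and normalized to buffer-only wells, with empty-vector signal subtracted.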

C[C@H](CCC(=O)O)[C@H]1CC[C@H]2[C@@H]3[C@H](O)C[C@@H]4C[C@H](O)CC[C@]4(C)[C@H]3C[C@H](O)[C@]12C [Cholic Acid, cholic acid]
Efficacy = maximal amplitude (ΔF/F) (TAS2R1, bile acids, mean): 0.1303
Efficacy (maximal amplitude ΔF/F), individual data points (TAS2R1, bile acids, single replicates, listed as CA): 0.1237 and 0.1261 and 0.1411
RLU (Time 0 s): 0 RLU
RLU (Time 2.015 s): -18.7915 RLU
RLU (Time 4.015 s): -20.7803 RLU
RLU (Time 6.015 s): -30.3104 RLU
RLU (Time 8.015 s): -41.5185 RLU
RLU (Time 12.015 s): -39.0663 RLU
RLU (Time 14.015 s): -19.7859 RLU
RLU (Time 16.015 s): -20.0825 RLU
RLU (Time 18.015 s): -33.1938 RLU
RLU (Time 18.796 s): -13.8993 RLU
RLU (Time 20.796 s): -32.113 RLU
RLU (Time 22.796 s): 0.5227 RLU
RLU (Time 24.796 s): 72.3168 RLU
RLU (Time 26.796 s): 179.01 RLU
RLU (Time 28.796 s): 273.224 RLU
RLU (Time 30.796 s): 414.499 RLU
RLU (Time 32.796 s): 487.46 RLU
RLU (Time 34.796 s): 561.258 RLU
RLU (Time 36.796 s): 600.729 RLU
RLU (Time 38.796 s): 652.414 RLU
RLU (Time 40.796 s): 646.063 RLU
RLU (Time 42.796 s): 688.029 RLU
RLU (Time 44.796 s): 718.237 RLU
RLU (Time 46.796 s): 709.989 RLU
RLU (Time 48.796 s): 747.058 RLU
RLU (Time 50.796 s): 725.497 RLU
RLU (Time 52.796 s): 721.254 RLU
RLU (Time 54.796 s): 750.511 RLU
RLU (Time 56.796 s): 763.129 RLU
RLU (Time 58.796 s): 754.05 RLU
RLU (Time 60.796 s): 736.769 RLU
RLU (Time 62.796 s): 752.117 RLU
RLU (Time 64.796 s): 729.251 RLU
RLU (Time 66.796 s): 754.307 RLU
RLU (Time 68.796 s): 748.849 RLU
RLU (Time 70.796 s): 729.014 RLU
RLU (Time 72.796 s): 724.252 RLU
RLU (Time 74.796 s): 721.996 RLU
RLU (Time 76.796 s): 719.984 RLU
RLU (Time 78.796 s): 701.138 RLU
RLU (Time 80.796 s): 695.956 RLU
RLU (Time 82.796 s): 687.252 RLU
RLU (Time 84.796 s): 702.818 RLU
RLU (Time 86.796 s): 660.013 RLU
RLU (Time 88.796 s): 675.614 RLU
RLU (Time 90.796 s): 671.255 RLU
RLU (Time 92.796 s): 645.369 RLU
RLU (Time 94.796 s): 658.13 RLU
RLU (Time 96.796 s): 614.664 RLU
RLU (Time 98.796 s): 601.791 RLU
RLU (Time 100.796 s): 605.799 RLU
RLU (Time 102.796 s): 574.755 RLU
RLU (Time 104.796 s): 579.697 RLU
RLU (Time 106.796 s): 554.874 RLU
RLU (Time 108.796 s): 536.028 RLU
RLU (Time 110.796 s): 503.66 RLU
RLU (Time 112.796 s): 530.288 RLU
RLU (Time 114.796 s): 510.693 RLU
RLU (Time 116.796 s): 515.676 RLU
RLU (Time 118.796 s): 477.82 RLU
RLU (Time 120.796 s): 483.731 RLU
RLU (Time 122.796 s): 479.051 RLU
RLU (Time 124.796 s): 471.711 RLU
RLU (Time 126.796 s): 440.735 RLU
RLU (Time 128.796 s): 427.776 RLU
RLU (Time 130.796 s): 428.214 RLU
RLU (Time 132.796 s): 399.927 RLU
RLU (Time 134.796 s): 369.335 RLU
RLU (Time 136.796 s): 379.68 RLU
RLU (Time 137.562 s): 368.206 RLU
RLU (Time 143.562 s): 326.335 RLU
RLU (Time 149.562 s): 297.638 RLU
RLU (Time 155.562 s): 268.743 RLU
RLU (Time 161.562 s): 228.213 RLU
RLU (Time 167.562 s): 217.461 RLU
RLU (Time 173.562 s): 182.798 RLU
RLU (Time 179.562 s): 176.247 RLU
RLU (Time 185.562 s): 110.643 RLU
RLU (Time 191.562 s): 119.586 RLU
RLU (Time 197.562 s): 108.976 RLU
RLU (Time 203.562 s): 106.514 RLU
RLU (Time 209.562 s): 78.0739 RLU
RLU (Time 215.562 s): 68.108 RLU
RLU (Time 221.562 s): 58.6538 RLU
RLU (Time 227.562 s): 6.904 RLU
RLU (Time 233.562 s): -20.3665 RLU
RLU (Time 239.562 s): 5.663 RLU
RLU (Time 245.562 s): 6.786 RLU
RLU (Time 293.562 s): -10.9022 RLU
RLU (Time 299.562 s): -34.1549 RLU
RLU (calcium trace, sheet TAS2R1, Time 305.562 s): -13.9937 RLU
RLU (calcium trace, sheet TAS2R1, Time 311.562 s): -29.8879 RLU
RLU (calcium trace, sheet TAS2R1, Time 317.562 s): -12.8001 RLU
RLU (calcium trace, sheet TAS2R1, Time 323.562 s): -27.2317 RLU
RLU (calcium trace, sheet TAS2R1, Time 329.562 s): -32.4678 RLU
RLU (calcium trace, sheet TAS2R1, Time 335.562 s): -20.5128 RLU
RLU (calcium trace, sheet TAS2R1, Time 341.562 s): -18.5874 RLU
RLU (calcium trace, sheet TAS2R1, Time 347.562 s): -51.1709 RLU
RLU (calcium trace, sheet TAS2R1, Time 353.562 s): -49.428 RLU
RLU (calcium trace, sheet TAS2R1, Time 359.562 s): -15.7961 RLU
Activation threshold concentration TAS2R1 (lowest concentration with significantly increased fluorescence vs empty vector (p < 0.01)): 100 µM and 100.00 µM
